Measured values as given in EP4745117A1, “NOVEL INDENONE DERIVATIVE AND USE THEREOF” (Amyloid Solution Inc., priority 2023, dated 2025).

Columns and labels:
[1] = target: T1, Aβ1-42 (Homo sapiens, UniProt P05067); test: Amyloid-beta disaggregation test by Thioflavin-T analysis; assay type: biochemical; details: for EC50: Aβ1-42 50 µM aggregated 24 hours, then compound 0 - 500 µM for 48 hours at 37 °C, concentration disaggregating 50 % of aggregates vs control, read-out: EC50 (µM) Aβ; for disaggregation effect for amyloid-beta protein aggregates: statement in words summarising the Thioflavin-T results
T1 construct: dissolving Aβ1-42 or Tau-RD3 (Tau repeat domain 3) monomers in DMSO
T1 sequence (P05067 672-713 limits assumed): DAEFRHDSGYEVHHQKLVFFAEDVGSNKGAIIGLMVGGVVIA
Procedure, shortened: (§1)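 Aβ1-42 (50 µM) or Tau-RD3 (35 µM) pre-aggregated 24 h at 37 °C, then incubated with compound (500 µM down to 0 µM, serial dilution) for 48 h at 37 °C. Read-out by Thioflavin-T (5 µM solution, glycine buffer pH 8.5) fluorescence, ex 450/em 485 nm. Values expressed relative to 72 h aggregated protein-only control (100%).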

[2] = target: Tau-RD3 (Tau repeat domain 3) (Homo sapiens, UniProt P10636); test: Tau disaggregation test by Thioflavin-T analysis; assay type: biochemical; details: for EC50: Tau-RD3 35 µM aggregated 24 hours, then compound 0 - 500 µM for 48 hours at 37 °C, concentration disaggregating 50 % of aggregates vs control, read-out: EC50 (µM) Tau; for disaggregation effect for tau protein aggregates: statement in words summarising the Thioflavin-T results
Sequence of Tau-RD3 (Tau repeat domain 3) (P10636 623-653 limits assumed): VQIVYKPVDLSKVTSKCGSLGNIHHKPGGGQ
Procedure, shortened: as §1

Row | SMILES | EC50 [1] | EC50 [2] | disaggregation effect for amyloid-beta protein aggregates [1] | disaggregation effect for tau protein aggregates [2]
1 | Cc1ncsc1C1=C(c2cccnc2)C(=O)c2cc(NC3CCOCC3)ccc21 [Compound 56, 3-(4-methylthiazol-5-yl)-2-(pyridin-3-yl)-6-((tetrahydro-2H-pyran-4-yl)amino)-1H-inden-1-one] | 20 to 100 µM | 20 to 100 µM |  | 
2 | Cc1ncsc1C1=C(c2cccnc2)C(=O)c2cc(SCCCc3ccccc3)ccc21 [Compound 57, 3-(4-methylthiazol-5-yl)-6-((3-phenylpropyl)thio)-2-(pyridin-3-yl)-1H-inden-1-one] | < 20 µM | < 20 µM | remarkably excellent disaggregation effect | remarkably excellent disaggregation effect
3 | Cc1ncsc1C1=C(c2cccnc2)C(=O)c2cc(NC3CCCN(c4ccccc4)C3)ccc21 (stereo not drawn) [Compound 58, 3-(4-methylthiazol-5-yl)-6-((1-phenylpiperidin-3-yl)amino)-2-(pyridin-3-yl)-1H-inden-1-one] | < 20 µM | > 250 µM |  | 
4 | Cc1ncsc1C1=C(c2cccnc2)C(=O)c2cc(N)ccc21 [Compound 59, 6-amino-3-(4-methylthiazol-5-yl)-2-(pyridin-3-yl)-1H-inden-1-one] | 20 to 100 µM | 20 to 100 µM |  | 
5 | Cc1ncsc1C1=C(c2cccnc2)C(=O)c2cc(NC(=O)CCc3ccccc3)ccc21 [Compound 60, N-(3-(4-methylthiazol-5-yl)-1-oxo-2-(pyridin-3-yl)-1H-inden-6-yl)-3-phenylpropanamide] | 20 to 100 µM | < 20 µM |  | 
6 | Cc1ncsc1C1=C(c2cccnc2)C(=O)c2cc(NC(=O)C3CCOCC3)ccc21 [Compound 61, N-(3-(4-methylthiazol-5-yl)-1-oxo-2-(pyridin-3-yl)-1H-inden-6-yl)tetrahydro-2H-pyran-4-carboxamide] | > 250 µM | > 250 µM |  | 
7 | Cc1ncsc1C1=C(c2cccnc2)C(=O)c2cc(N(C)C)ccc21 [Compound 62, 6-(dimethylamino)-3-(4-methylthiazol-5-yl)-2-(pyridin-3-yl)-1H-inden-1-one] | > 250 µM | > 250 µM |  | 
8 | Cc1ncsc1C1=C(c2cccnc2)C(=O)c2cc(N3CCN(C)CC3)ccc21 [Compound 64, 6-(4-methylpiperazin-1-yl)-3-(4-methylthiazol-5-yl)-2-(pyridin-3-yl)-1H-inden-1-one] | 20 to 100 µM | 100 to 250 µM |  | 
9 | Cc1ncsc1C1=C(c2cccnc2)C(=O)c2cc(Oc3ccccc3)ccc21 [Compound 66, 3-(4-methylthiazol-5-yl)-6-phenoxy-2-(pyridin-3-yl)-1H-inden-1-one] | < 20 µM | < 20 µM | remarkably excellent disaggregation effect | remarkably excellent disaggregation effect
10 | CNc1ccc2c(c1)C(=O)C(c1ccccc1)=C2c1ccccc1 [Compound 67, 6-(methylamino)-2,3-diphenyl-1H-inden-1-one] | > 250 µM | > 250 µM |  | 
11 | Nc1ccc2c(c1)C(=O)C(c1ccccc1)=C2c1ccccc1 [Compound 68, 6-amino-2,3-diphenyl-1H-inden-1-one] | > 250 µM | > 250 µM |  | 
12 | CN(C)c1ccc2c(c1)C(=O)C(c1ccccc1)=C2c1ccccc1 [Compound 69, 6-(dimethylamino)-2,3-diphenyl-1H-inden-1-one] | < 20 µM | > 250 µM |  | 
13 | Cc1cc(N2CCN(C)CC2)cc2c1C(c1ccccc1)=C(c1ccccc1)C2=O [Compound 71, 4-methyl-6-(4-methylpiperazin-1-yl)-2,3-diphenyl-1H-inden-1-one] | 20 to 100 µM | 100 to 250 µM |  | 
14 | Cc1cccc(C)c1C1=C(c2ccccc2)C(=O)c2cc(Cl)ccc21 [Compound 72-7, 6-chloro-3-(2,6-dimethylphenyl)-2-phenyl-1H-inden-1-one] | < 20 µM | > 250 µM |  | 
15 | CN1CCN(c2ccc3c(c2)C(=O)C(c2cccc(N4CCOCC4)c2)=C3c2ccccc2)CC1 [Compound 73, 6-(4-methylpiperazin-1-yl)-2-(3-morpholinophenyl)-3-phenyl-1H-inden-1-one] | 100 to 250 µM | 100 to 250 µM |  | 
16 | O=C1C(c2cccc(N3CCOCC3)c2)=C(c2ccccc2)c2ccc(Cl)cc21 [Compound 73-7, 6-chloro-2-(3-morpholinophenyl)-3-phenyl-1H-inden-1-one] | < 20 µM | > 250 µM |  | 
17 | Cc1ncsc1C1=C(c2ccc(N3CCN(C)CC3)cc2)C(=O)c2cc(OCCCc3ccccc3)ccc21 [Compound 76, 2-(4-(4-methylpiperazin-1-yl)phenyl)-3-(4-methylthiazol-5-yl)-6-(3-phenylpropoxy)-1H-inden-1-one] | < 20 µM | < 20 µM |  | 
18 | Cc1ncsc1C1=C(c2scnc2C)c2ccc(OCCCc3ccccc3)cc2C1=O [Compound 77, 2,3-bis(4-methylthiazol-5-yl)-6-(3-phenylpropoxy)-1H-inden-1-one] | < 20 µM | < 20 µM |  | 

Row | SMILES | EC50 [1] | EC50 [2] | disaggregation effect for amyloid-beta protein aggregates [1] | disaggregation effect for tau protein aggregates [2]
19 | O=C1C(c2ccccc2)=C(c2ccccc2)c2ccc(OCCCc3ccccc3)cc21 [Compound 78, 2,3-diphenyl-6-(3-phenylpropoxy)-1H-inden-1-one] | 100 to 250 µM | > 250 µM |  | 
20 | Cc1ncsc1C1=C(c2scnc2C)c2ccc(N3CCN(C)CC3)cc2C1=O [Compound 79, 6-(4-methylpiperazin-1-yl)-2,3-bis(4-methylthiazol-5-yl)-1H-inden-1-one] | 20 to 100 µM | 20 to 100 µM |  | 
21 | CN1CCN(c2ccc3c(c2)C(=O)C(c2cccc(N4CCOCC4)c2)=C3c2cccc(N3CCOCC3)c2)CC1 [Compound 80, 6-(4-methylpiperazin-1-yl)-2,3-bis(3-morpholinophenyl)-1H-inden-1-one] | 20 to 100 µM | 100 to 250 µM |  | 
22 | Cc1ncsc1C1=C(c2scnc2C)c2ccc(N3CCN(CCO)CC3)cc2C1=O [Compound 81, 6-(4-(2-hydroxyethyl)piperazin-1-yl)-2,3-bis(4-methylthiazol-5-yl)-1H-inden-1-one] | 20 to 100 µM | 20 to 100 µM |  | 
23 | Cc1ccccc1C1=C(c2ccccc2C)c2ccc(O)cc2C1=O [Compound 82, 6-hydroxy-2,3-di-o-tolyl-1H-inden-1-one] | < 20 µM | 20 to 100 µM |  | 
24 | O=C1C(c2cncs2)=C(c2cncs2)c2ccc(OCCCc3ccccc3)cc21 [Compound 83, 6-(3-phenylpropoxy)-2,3-di(thiazol-5-yl)-1H-inden-1-one] | < 20 µM | < 20 µM | remarkably excellent disaggregation effect | remarkably excellent disaggregation effect
25 | COc1ccc2c(c1)C(=O)C(c1cncs1)=C2c1cncs1 [Compound 83-5, 6-methoxy-2,3-di(thiazol-5-yl)-1H-inden-1-one] | 20 to 100 µM | 20 to 100 µM |  | 
26 | O=C1C(c2cncs2)=C(c2cncs2)c2ccc(O)cc21 [Compound 83-6, 6-hydroxy-2,3-di(thiazol-5-yl)-1H-inden-1-one] | > 250 µM | 100 to 250 µM |  | 
27 | Cc1ccccc1C1=C(c2c(C)cccc2C)c2ccc(O)cc2C1=O [Compound 84, 3-(2,6-dimethylphenyl)-6-hydroxy-2-(o-tolyl)-1H-inden-1-one] | < 20 µM | < 20 µM | remarkably excellent disaggregation effect | remarkably excellent disaggregation effect
28 | Cc1ncsc1C1=C(c2ccc(N3CCN(C)CC3)cc2)C(=O)c2ccccc21 [Compound 85, 2-(4-(4-methylpiperazin-1-yl)phenyl)-3-(4-methylthiazol-5-yl)-1H-inden-1-one] | > 250 µM | > 250 µM |  | 
29 | Cc1ncsc1C1=C(c2ccc(CN3CCN(C)CC3)cc2)C(=O)c2ccccc21 [Compound 86, 2-(4-((4-methylpiperazin-1-yl)methyl)phenyl)-3-(4-methylthiazol-5-yl)-1H-inden-1-one] | 20 to 100 µM | < 20 µM |  | 
30 | Cc1ncsc1C1=C(c2ccc(CN3CCOCC3)cc2)C(=O)c2ccccc21 [Compound 87, 3-(4-methylthiazol-5-yl)-2-(4-(morpholinomethyl)phenyl)-1H-inden-1-one] | < 20 µM | 20 to 100 µM |  | 
31 | Cc1ncsc1C1=C(c2cccc(CN3CCN(C)CC3)c2)C(=O)c2ccccc21 [Compound 88, 2-(3-((4-methylpiperazin-1-yl)methyl)phenyl)-3-(4-methylthiazol-5-yl)-1H-inden-1-one] | < 20 µM | 20 to 100 µM |  | 
32 | Cc1ncsc1C1=C(c2cccc(CN3CCOCC3)c2)C(=O)c2ccccc21 [Compound 89, 3-(4-methylthiazol-5-yl)-2-(3-(morpholinomethyl)phenyl)-1H-inden-1-one] | 20 to 100 µM | 100 to 250 µM |  | 
33 | CN1CCN(c2cccc(C3=C(c4ccccc4)c4ccccc4C3=O)c2)CC1 [Compound 91, 2-(3-(4-methylpiperazin-1-yl)phenyl)-3-phenyl-1H-inden-1-one] | < 20 µM | > 250 µM |  | 
34 | Cc1ncsc1C1=C(c2ccc(CN3CCN(C)CC3)cc2)c2ccccc2C1=O [Compound 92, 3-(4-((4-methylpiperazin-1-yl)methyl)phenyl)-2-(4-methylthiazol-5-yl)-1H-inden-1-one] | 20 to 100 µM | 20 to 100 µM |  | 
35 | Cc1ncsc1C1=C(c2cccc(CN3CCN(C)CC3)c2)c2ccccc2C1=O [Compound 93, 3-(3-((4-methylpiperazin-1-yl)methyl)phenyl)-2-(4-methylthiazol-5-yl)-1H-inden-1-one] | 20 to 100 µM | 20 to 100 µM |  | 
